Source: publication PMC9635925, “Biological screening of a unique drug library targeting MRGPRX2” (Frontiers in Immunology, 2022)
Where a chain is given by its changes, count along the chain named. Counter-ions that a name gives are not always drawn.

Experiments:
[1] = target: T1, MRGPRX2-WT (wild-type MRGPRX2 receptor) (Homo sapiens, UniProt Q96LB1); assay: Primary HTS, Ca2+ mobilization (fluorescence ratio, B-score) in HEK293-Gα15 cells stably expressing wild-type MRGPRX2; type: cell-based; conditions: 10 μM compound
T1 construct: expressed in transfected cells
T1 sequence (Q96LB1 1-330): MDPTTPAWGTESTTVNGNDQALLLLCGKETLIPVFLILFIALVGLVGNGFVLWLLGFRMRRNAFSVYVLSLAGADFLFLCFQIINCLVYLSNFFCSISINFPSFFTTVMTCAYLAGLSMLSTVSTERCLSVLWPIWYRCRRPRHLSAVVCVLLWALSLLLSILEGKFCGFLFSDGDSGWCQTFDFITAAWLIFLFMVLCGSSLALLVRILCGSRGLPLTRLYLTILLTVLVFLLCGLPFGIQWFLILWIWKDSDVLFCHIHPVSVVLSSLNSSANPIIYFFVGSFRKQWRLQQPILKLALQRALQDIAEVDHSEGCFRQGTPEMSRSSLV
Method: (§1) We performed an experimental HTS on the Johns Hopkins Drug Library, which includes 1,811 (57%) FDA-approved drugs among 3,456 total compounds (28% of all known drugs worldwide) ([15]). We performed the HTS at the Johns Hopkins University ChemBioCORE Facility and employed HEK293-Gα15 cell lines that stably expressed MRGPRX2 protein.
(§2) We utilized 10 μM compounds (each compound was tested in triplicate) and calculated the compound effect using the signal-to-background fluorescence ratio (see Supplementary Methods).
(§3) In the HTS, we determined MRGPRX2 activation by a Ca^2+ mobilization assay that recorded a fluorescence change by utilizing a Functional Drug Screening System (FDSS 6000; Hamamatsu); we evaluated the compound effect using the calculated fluorescence ratio. We further applied the B-score normalization, which provided robust corrections for variation in fluorescence ratio ([22]).
(§4) We performed an experimental high-throughput screening (HTS) on the Johns Hopkins Drug Library (JHDL), which includes 1,811 (57%) FDA-approved drugs among 3,456 total compounds (28% of all known drugs worldwide). The remaining compounds in JHDL are catalogued in one or more of the resources below: British Approved Names (BAN); Dénominations Communes Françaises (DCF); International Nonproprietary Names (INN); Japanese Adopted Names (JAN); MI (Merck Index); National Formulary drug name (NF); and United States Accepted Names (USAN). The JHU drug library is stocked in 96 well plates at 10 mM in 100% DMSO and stored at -80 °C. We used a final concentration of 10 uM for each compound and DMSO concentration of 0.1% (tested in triplicate). […] We evaluated compound effect using the calculated fluorescence ratio. We further calculated B-scores, which are a relative potency score similar to Z scores in that they are the ratio of an adjusted raw value in the numerator to a measure of variability in the denominator.

[2] = target: T2, MRGPRX2-MUT (MRGPRX2 N62S mutation) (Homo sapiens, UniProt Q96LB1, N62S); assay: Primary HTS, Ca2+ mobilization (fluorescence ratio, B-score) in HEK293-Gα15 cells stably expressing the MRGPRX2 N62S mutation; type: cell-based; conditions: for B-scores (MUT): 10 μM compound, MRGPRX2-MUT (N62S) cells; for Change of B-scores (%): 10 μM
T2 construct: expressed in transfected cells
T2 sequence (Q96LB1 1-330 N62S): T1 sequence (Q96LB1 1-330) with N62S
Method: as §1, §2, §3, §4

[3] = MRGPRX2-MUT in comparison to MRGPRX2-WT cells, Supplementary Table 1
[4] = MRGPRX2-MUT in comparison to MRGPRX2-WT cells, Table 1
[5] = MRGPRX2-MUT versus MRGPRX2-WT cells, Supplementary Table 2
[6] = Supplementary Table 2, listed as Isoprenaline

SMILES	B-scores (WT) ([1]; Supplementary Table 1)	B-scores (WT) ([1]; Table 1)	B-scores (MUT) ([2]; Supplementary Table 1)	B-scores (MUT) ([2]; Table 1)	Change of B-scores (%) [2, 3] [%]	Change of B-scores (%) [2, 4] [%]	B-scores (WT) ([1]; Supplementary Table 2)	B-scores (MUT) ([2]; Supplementary Table 2)	Change of B-scores (%) [2, 5] [%]	further results
CNCCC(Oc1ccc(C(F)(F)F)cc1)c1ccccc1 (stereo not shown) [Fluoxetine]	36.30	36.30	7.14	7.14	-80.32	-80.32	–	–	–	–
COc1ccc2c3c1O[C@H]1C[C@@H](O)C=C[C@@]31CCN(C)C2 [Galantamine Hydrobromide]	19.90	–	1.33	–	-93.34	–	–	–	–	–
COc1ccc2c3c1O[C@H]1C[C@@H](O)C=C[C@@]31CCN(C)C2 [Galantamine]	40.50	–	1.25	–	-96.90	–	–	–	–	–
COc1ccc(CCN(C)CCCC(C#N)(c2cc(OC)c(OC)c(OC)c2)C(C)C)cc1OC (stereo not shown) [Gallopamil]	–	–	–	–	–	–	7.16	0.2	-97.19	–
CN1[C@@H]2CC(OC(=O)[C@H](CO)c3ccccc3)C[C@H]1[C@@H]1O[C@@H]12.Cl (stereo partly shown) [Hyoscine hydrochloride]	–	–	–	–	–	–	11.2	0.57	-94.9	–
CN1[C@@H]2CC[C@H]1CC(OC(=O)[C@H](CO)c1ccccc1)C2.Cl (stereo partly shown) [Hyoscyamine Hydrochloride]	–	–	–	–	–	–	11.54	0.69	-94.01	–
CN1[C@@H]2CC[C@H]1C[C@@H](OC(=O)[C@H](CO)c1ccccc1)C2 [Hyoscyamine]	–	–	–	–	–	–	17.72	0.65	-96.31	–
CC(=O)[C@]1(O)Cc2c(O)c3c(c(O)c2[C@@H](O[C@H]2C[C@H](N)[C@H](O)[C@H](C)O2)C1)C(=O)c1ccccc1C3=O [Idarubicin hydrochloride]	–	–	–	–	–	–	11.57	39.57	241.86	–
CN(C)CCCN1c2ccccc2CCc2ccccc21 [Imipramine Hydrochloride]	32.17	32.17	16.90	16.90	-47.47	-47.47	32.17	16.9	-47.47	–
CC(C)CCCC(C)NC(C)C (stereo not shown) [Iproheptine]	26.61	–	10.27	–	-61.42	–	–	–	–	–
CCC(NC(C)C)C(O)c1ccc(O)c(O)c1 (stereo not shown) [Isoetharine Mesylate]	29.54	–	0.60	–	-97.97	–	–	–	–	–
CC(C)NCC(O)c1ccc(O)c(O)c1 (stereo not shown) [Isoproterenol Hydrochloride]	20.95	–	–	–	-100.26	–	20.95	-0.05	-100.26	B-scores (WT) ([1]; Supplementary Table 1, listed as Isoprenaline hydrochloride): 21.82; Change of B-scores (%) ([2]; MRGPRX2-MUT in comparison to MRGPRX2-WT cells, Supplementary Table 1, listed as Isoprenaline hydrochloride): -100.25%
CC(C)NCC(O)c1ccc(O)c(O)c1 (stereo not shown) [Isoproterenol]	19.12	–	6.75	–	-64.69	–	–	–	–	B-scores (WT) [1, 6]: 19.12; B-scores (MUT) [2, 6]: 6.75; Change of B-scores (%) ([2]; MRGPRX2-MUT versus MRGPRX2-WT cells, Supplementary Table 2, listed as Isoprenaline): -64.69%
CN1CCC(=C2c3ccccc3CC(=O)c3sccc32)CC1 [Ketotifen Fumarate]	23.14	23.14	0.81	0.81	-96.52	-96.52	–	–	–	–
CN1CCC(=C2c3ccccc3CC(=O)c3sccc32)CC1 [Ketotifen]	20.12	20.12	1.38	1.38	-93.13	-93.13	–	–	–	–
CC(C)(C)NC[C@H](O)c1ccc(O)c(CO)c1 [Levalbuterol]	–	–	–	–	–	–	12.18	1.63	-86.62	–
C[C@H]1COc2c(N3CCN(C)CC3)c(F)cc3c(=O)c(C(=O)O)cn1c23 [Levofloxacin]	39.73	39.73	0.74	-0.74	-101.85	-101.85	–	–	–	–
CCOC(=O)N1CCC(=C2c3ccc(Cl)cc3CCc3cccnc32)CC1 [Loratadine]	21.95	21.95	–	-3.30	-115.04	-115.04	–	–	–	–
Cc1ccc(NC(=O)c2ccc(CN3CCN(C)CC3)cc2)cc1Nc1nc(-c2cccnc2)cs1 [Masitinib]	27.71	27.71	3.82	3.82	-86.20	-86.20	27.71	3.82	-86.2	–
CN1CCc2c(c3ccccc3n2Cc2ccccc2)C1.CN1CCc2c(c3ccccc3n2Cc2ccccc2)C1.O=S(=O)(O)c1cccc2c(S(=O)(=O)O)cccc12 [Mebhydrolin Naphthalenesulfonate]	25.34	25.34	1.93	1.93	-92.39	-92.39	–	–	–	–
CC12CC3CC(C)(C1)CC(N)(C3)C2 [Memantine Hydrochloride]	26.34	–	–	–	-99.82	–	–	–	–	–
CC(C)NCC(O)c1cc(O)cc(O)c1 (stereo not shown) [Metaproterenol]	20.54	–	2.41	–	-88.28	–	20.54	2.41	-88.28	–
CC(=O)OC(C)C[N+](C)(C)C (stereo not shown) [Methacholine Chloride]	26.04	–	37.31	–	43.29	–	–	–	–	–
CC(=O)Oc1cc(C(C)C)c(OCCN(C)C)cc1C [Moxisylyte Hydrochloride]	23.69	–	1.32	–	-94.42	–	–	–	–	–
NC[C@H](O)c1ccc(O)c(O)c1 [Norepinephrine]	28.83	–	7.54	–	-73.85	–	–	–	–	–
CCn1cc(C(=O)O)c(=O)c2cc(F)c(N3CCNCC3)cc21 [Norfloxacin]	28.07	28.07	–	0.05	-99.81	-99.81	28.07	0.05	-99.81	–
CNCCC=C1c2ccccc2CCc2ccccc21 [Nortriptyline Hydrochloride]	–	–	–	–	–	–	16.29	2.78	-82.96	–
NCCC(O)(P(=O)([O-])O)P(=O)([O-])O.[Na+].[Na+] [Pamidronate disodium]	30.08	–	18.72	–	-37.79	–	–	–	–	–
